In PubChem BioAssay AID248 (DTP/NCI, 2004):
Where “and” joins values, the source holds several entries; their conditions need not be identical. Equal entries are not always repeated. Inconclusive results and toxic doses are left out.

Test system: L1210 leukemia ip in BDF1 mice, survival T/C
Assay: NCI In Vivo Anticancer Drug Screen. Data for tumor model L1210 Leukemia (intraperitoneal) in B6D2F1 (BDF1) mice
Conditions: endpoint: mean survival time, higher = longer survival
In short: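 Transplantable tumor model; survival measured in treated vs vehicle control mice. Value = treated/control.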

[1] = dose: 25.0 mg/kg/injection, schedule: Q01DX009 (ip), vehicle: saline
[2] = dose: 50.0 mg/kg/injection, schedule: Q01DX009 (ip), vehicle: saline
[3] = dose: 100.0 mg/kg/injection, schedule: Q01DX009 (ip), vehicle: saline
[4] = dose: 200.0 mg/kg/injection, schedule: Q01DX001 (ip), vehicle: saline

## OCc1ccn2c1[C@@H](O)CC2
dose: 6.25 mg/kg/injection, schedule: Q01DX009 (ip), vehicle: saline
  T/C: 107 % of control
dose: 12.5 mg/kg/injection, schedule: Q01DX009 (ip), vehicle: acetone
  T/C: 100 % of control
dose: 12.5 mg/kg/injection, schedule: Q01DX009 (ip), vehicle: saline
  T/C: 96 % of control
dose: 25.0 mg/kg/injection, schedule: Q01DX001 (ip), vehicle: saline
  T/C: 101 % of control and 107 % of control
dose: 25.0 mg/kg/injection, schedule: Q01DX009 (ip), vehicle: acetone
  T/C: 111 % of control
[1]
  T/C: 110 % of control
dose: 50.0 mg/kg/injection, schedule: Q01DX001 (ip), vehicle: saline
  T/C: 112 % of control
[2]
  T/C: 153 % of control
[3]
  T/C: 121 % of control and 89 % of control
[4]
  T/C: 112 % of control

## COc1cccc2c(=O)cc(C)[nH]c12
dose: 50.0 mg/kg/injection, schedule: Q01DX009 (ip), vehicle: water
  T/C: 104 % of control
dose: 100.0 mg/kg/injection, schedule: Q01DX009 (ip), vehicle: water
  T/C: 102 % of control
dose: 100.0 mg/kg/injection, schedule: Q04DX003 (ip), vehicle: water
  T/C: 101 % of control
dose: 200.0 mg/kg/injection, schedule: Q01DX009 (ip), vehicle: water
  T/C: 109 % of control
dose: 200.0 mg/kg/injection, schedule: Q04DX003 (ip), vehicle: water
  T/C: 96 % of control
dose: 400.0 mg/kg/injection, schedule: Q01DX009 (ip), vehicle: water
  T/C: 105 % of control
dose: 400.0 mg/kg/injection, schedule: Q04DX003 (ip), vehicle: water
  T/C: 108 % of control

## C=C[C+](CCCC)C(=O)[O-]
[1]
  T/C: 95 % of control
[2]
  T/C: 92 % of control
dose: 50.0 mg/kg/injection, schedule: Q04DX003 (ip), vehicle: saline
  T/C: 98 % of control
dose: 100.0 mg/kg/injection, schedule: Q01DX001 (ip), vehicle: acetone
  T/C: 96 % of control
[3]
  T/C: 87 % of control
dose: 100.0 mg/kg/injection, schedule: Q04DX003 (ip), vehicle: saline
  T/C: 93 % of control
dose: 150.0 mg/kg/injection, schedule: Q01DX009 (ip), vehicle: saline
  T/C: 101 % of control
dose: 200.0 mg/kg/injection, schedule: Q01DX001 (ip), vehicle: acetone
  T/C: 95 % of control
dose: 225.0 mg/kg/injection, schedule: Q01DX009 (ip), vehicle: saline
  T/C: 98 % of control

## C[Si](C)(CCCOCC1CO1)O[Si](C)(C)CCCOCC1CO1 (stereo unspecified)
dose: 100.0 mg/kg/injection, schedule: Q01DX009 (ip), vehicle: saline with Tween-80
  T/C: 97 % of control
dose: 100.0 mg/kg/injection, schedule: Q04DX003 (ip), vehicle: saline with Tween-80
  T/C: 95 % of control
dose: 200.0 mg/kg/injection, schedule: Q01DX009 (ip), vehicle: saline with Tween-80
  T/C: 97 % of control
dose: 200.0 mg/kg/injection, schedule: Q04DX003 (ip), vehicle: saline with Tween-80
  T/C: 89 % of control
dose: 400.0 mg/kg/injection, schedule: Q01DX009 (ip), vehicle: saline with Tween-80
  T/C: 92 % of control
dose: 400.0 mg/kg/injection, schedule: Q04DX003 (ip), vehicle: saline with Tween-80
  T/C: 87 % of control

## COC(=O)c1[nH]cnc1/N=N/N(C)C
dose: 6.75 mg/kg/injection, schedule: Q01DX009 (ip), vehicle: saline
  T/C: 119 % of control
dose: 9.3 mg/kg/injection, schedule: Q01DX015 (ip), vehicle: saline
  T/C: 113 % of control
dose: 11.25 mg/kg/injection, schedule: Q01DX Z (ip), vehicle: saline
  T/C: 124 % of control
dose: 22.25 mg/kg/injection, schedule: Q04DX003 (ip), vehicle: saline
  T/C: 115 % of control
dose: 27.0 mg/kg/injection, schedule: Q01DX009 (ip), vehicle: saline
  T/C: 150 % of control
dose: 31.0 mg/kg/injection, schedule: Q01DX Z (ip), vehicle: saline
  T/C: 171 % of control
dose: 44.5 mg/kg/injection, schedule: Q04DX003 (ip), vehicle: saline
  T/C: 120 % of control
dose: 46.0 mg/kg/injection, schedule: Q01DX Z (ip), vehicle: saline
  T/C: 160 % of control
dose: 54.0 mg/kg/injection, schedule: Q01DX015 (ip), vehicle: saline
  T/C: 164 % of control
dose: 57.5 mg/kg/injection, schedule: Q01DX001 (ip), vehicle: saline
  T/C: 114 % of control
dose: 62.0 mg/kg/injection, schedule: Q01DX Z (ip), vehicle: saline
  T/C: 121 % of control
dose: 88.0 mg/kg/injection, schedule: Q01DX001 (ip), vehicle: saline
  T/C: 112 % of control
dose: 88.8 mg/kg/injection, schedule: Q01DX001 (ip), vehicle: saline
  T/C: 124 % of control
dose: 90.0 mg/kg/injection, schedule: Q01DX015 (ip), vehicle: saline
  T/C: 114 % of control
dose: 100.0 mg/kg/injection, schedule: Q01DX001 (ip), vehicle: saline
  T/C: 124 % of control
dose: 115.0 mg/kg/injection, schedule: Q01DX001 (ip), vehicle: saline
  T/C: 114 % of control
dose: 133.0 mg/kg/injection, schedule: Q01DX001 (ip), vehicle: saline
  T/C: 115 % of control
[4]
  T/C: 121 % of control
dose: 231.0 mg/kg/injection, schedule: Q01DX001 (ip), vehicle: saline
  T/C: 123 % of control
